Drawing on PubChem BioAssay (NCI), this text covers TGI and GI50 for 9 compounds.

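96-well plates; 48 h exposure; 5 concentrations. Endpoints by linear interpolation between flanking doses. Not reached: highest tested concentration assigned. GI50 = concentration required for 50% inhibition of growth. The concentration for full growth arrest is given as TGI.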

Among the test systems are 786-0 renal; A498 renal; EKVX NSCLC; HS 578T breast; NCI-H226 lung; OVCAR-4 ovarian; PC-3 prostate; SK-MEL-28 melanoma; SNB-75 CNS; T-47D breast.
Experiment in all cases: NCI tumour cell line growth inhibition, 48 h

Consider `O=C(O)c1cc(N=Cc2ccccc2O)cc(C(=O)O)c1`, for which the TGI in the assay with 786-0 renal, in the assay on A498 renal, in the assay with EKVX NSCLC, in the assay with HS 578T breast, in the assay with NCI-H226 lung and in the assay with OVCAR-4 ovarian was over 100 µM throughout. Also, the TGI in the assay on PC-3 prostate, in the assay on SK-MEL-28 melanoma, with SNB-75 CNS and with T-47D breast was over 100 µM in each case.
As to `NS(=O)(=O)c1cccc(N=Cc2c(O)[nH]c3ccccc23)c1`, the GI50 in the assay on 786-0 renal, with A498 renal, in the assay on EKVX NSCLC, in the assay on HS 578T breast, in the assay on NCI-H226 lung and in the assay with OVCAR-4 ovarian was over 25 µM each time. In addition, the GI50 with PC-3 prostate, in the assay on SK-MEL-28 melanoma, in the assay with SNB-75 CNS and in the assay on T-47D breast was over 25 µM throughout. Moreover, the TGI with 786-0 renal, with A498 renal, in the assay with EKVX NSCLC, in the assay on HS 578T breast, with NCI-H226 lung and in the assay on OVCAR-4 ovarian was over 25 µM each time. Besides, the TGI in the assay on PC-3 prostate, in the assay with SK-MEL-28 melanoma, in the assay on SNB-75 CNS and in the assay with T-47D breast was over 25 µM throughout.
With `O=C(Nc1ccc(Cl)cc1)c1cc(-c2ccc(Cl)cc2)c2sc(=O)[nH]c2n1`, the GI50 is 2.64 µM in the assay on 786-0 renal; 0.472 µM in the assay with A498 renal; 1.63 µM in the assay with EKVX NSCLC; 3.04 µM with HS 578T breast; 2.26 µM in the assay with NCI-H226 lung; 2.02 µM in the assay on OVCAR-4 ovarian. Also, the GI50 is 1.66 µM in the assay on PC-3 prostate, 1.57 µM with SK-MEL-28 melanoma, 1.7 µM in the assay with SNB-75 CNS and 0.584 µM in the assay on T-47D breast. Further, the TGI in the assay on 786-0 renal is 20.6 µM; with A498 renal it was 3.42 µM; in the assay with EKVX NSCLC, 11.7 µM; in the assay on HS 578T breast it was 21.5 µM; with NCI-H226 lung, 9.18 µM; with OVCAR-4 ovarian, 9.98 µM. For the same compound, the TGI in the assay on PC-3 prostate came to 12.2 µM; in the assay with SK-MEL-28 melanoma, 17.8 µM; in the assay with SNB-75 CNS, 8.03 µM; in the assay on T-47D breast, 5.46 µM.
Take `N#CCc1ncc(-c2ccc(C(F)(F)F)cc2)c(NC2CCCCCC2)n1`: the GI50 with 786-0 renal, in the assay with A498 renal, in the assay on HS 578T breast, with NCI-H226 lung, in the assay with OVCAR-4 ovarian and in the assay on PC-3 prostate was over 10 µM each time. The GI50 in the assay with SK-MEL-28 melanoma, in the assay with SNB-75 CNS and in the assay on T-47D breast was over 10 µM in each case. Also, the TGI in the assay with 786-0 renal, in the assay on A498 renal, in the assay with HS 578T breast, with NCI-H226 lung, with OVCAR-4 ovarian and with PC-3 prostate was over 10 µM in each case. In addition, the TGI in the assay on SK-MEL-28 melanoma, in the assay with SNB-75 CNS and in the assay on T-47D breast was over 10 µM throughout.
As to `Cc1cc(=O)oc2cc(OCc3c(F)cccc3Cl)ccc12`, the TGI in the assay with 786-0 renal was 40.2 µM; in the assay on A498 renal, over 100 µM; in the assay on HS 578T breast, 99.1 µM; in the assay on NCI-H226 lung it was over 100 µM; in the assay with OVCAR-4 ovarian, over 100 µM; in the assay with PC-3 prostate, over 100 µM. Moreover, the TGI was over 100 µM in the assay on SK-MEL-28 melanoma, 34.1 µM in the assay with SNB-75 CNS and over 100 µM in the assay with T-47D breast.
For the compound `COc1ccc2nc3cc(Cl)ccc3c(NCCCNCCC(C)O)c2c1` (stereo not given), the GI50 is 0.472 µM with 786-0 renal; 0.42 µM in the assay on A498 renal; 0.473 µM in the assay on EKVX NSCLC; 1.05 µM in the assay with HS 578T breast; 0.943 µM with NCI-H226 lung; 0.282 µM in the assay on OVCAR-4 ovarian. The GI50 with PC-3 prostate is 0.496 µM; in the assay with SNB-75 CNS it was 0.568 µM; with T-47D breast, 1.04 µM. For the same compound, the TGI with 786-0 renal came out at 1.94 µM; in the assay on A498 renal, 1.54 µM; in the assay on EKVX NSCLC, 2.41 µM; with HS 578T breast, 3.62 µM; in the assay on NCI-H226 lung, 3.11 µM; with OVCAR-4 ovarian, 1.04 µM. Besides, the TGI in the assay on PC-3 prostate was found to be 2.35 µM; with SNB-75 CNS it was 1.93 µM; in the assay with T-47D breast, 4.04 µM.
Regarding `CO[C@@H]1CC(=O)C2(CC(=O)O[C@@H]2/C=C(\C)CCC=C(C)C)C[C@@H]1O` (stereo not given in full), the GI50 was 0.761 µM in the assay with 786-0 renal; 1.66 µM in the assay with A498 renal; 1.42 µM in the assay on EKVX NSCLC; 4.74 µM with HS 578T breast; 0.755 µM with NCI-H226 lung; 0.378 µM in the assay with PC-3 prostate. Further, the values for the GI50 with SK-MEL-28 melanoma, in the assay with SNB-75 CNS and in the assay with T-47D breast were 0.83 µM, 1.2 µM and 0.522 µM, respectively. In addition, the TGI was 1.58 µM with 786-0 renal; 4.63 µM in the assay with A498 renal; 4.51 µM in the assay on EKVX NSCLC; over 50 µM in the assay on HS 578T breast; 2.05 µM with NCI-H226 lung; 1.44 µM in the assay with PC-3 prostate. The TGI came out at 1.86 µM with SK-MEL-28 melanoma, 3.66 µM in the assay with SNB-75 CNS and 1.26 µM in the assay with T-47D breast.
Regarding `COc1ccc2c(c1)C(c1ccccc1Cl)=Nc1c(n[nH]c1C)N2`, the GI50 in the assay with 786-0 renal is over 18.6 µM; in the assay with A498 renal it was 1.88 µM; in the assay on HS 578T breast it was 3.43 µM; with NCI-H226 lung, 3.28 µM; with OVCAR-4 ovarian it was over 25 µM; in the assay on PC-3 prostate, over 22.7 µM. Besides, the GI50 is over 25 µM in the assay with SK-MEL-28 melanoma, 3.14 µM in the assay on SNB-75 CNS and over 17.6 µM in the assay with T-47D breast. Besides, the TGI in the assay on 786-0 renal is over 25 µM; with A498 renal, over 25 µM; with HS 578T breast, 20.3 µM; in the assay on NCI-H226 lung, over 25 µM; in the assay on OVCAR-4 ovarian, over 25 µM; in the assay on PC-3 prostate, over 25 µM. Also, the TGI in the assay with SK-MEL-28 melanoma is over 25 µM; with SNB-75 CNS, over 17.3 µM; in the assay with T-47D breast, over 25 µM.
Turning to `COc1ccc(-n2c3c(c4c(CN5CCOCC5)c(O)ccc42)CCc2ccccc2C3=O)cc1`, the GI50 with 786-0 renal was 75.8 µM; in the assay with A498 renal, over 100 µM; in the assay with EKVX NSCLC it was over 100 µM; in the assay on HS 578T breast, over 100 µM; with NCI-H226 lung it was 54.5 µM; in the assay with PC-3 prostate it was 16.9 µM. Also, the GI50 in the assay on T-47D breast is over 100 µM. The TGI in the assay on 786-0 renal, with A498 renal, in the assay with EKVX NSCLC, in the assay on HS 578T breast, in the assay with NCI-H226 lung and with PC-3 prostate was over 100 µM in each case. The compound further showed a TGI in the assay on T-47D breast of over 100 µM.
